Patent US8283358B2, “N-sulfonamido polycyclic pyrazolyl compounds” (Elan Pharmaceuticals, Inc., priority 2008, dated 2012)
Read-outs that look alike come from different tables or passages of the source.

Target: T1, gamma-secretase (partially purified extract of IMR-32 cell membranes; substrate MBP-C125 Swe fusion protein, cleavage at the Aβ40 site) (Homo sapiens, UniProt P49768)
T1 construct: a partially purified extract of IMR-32 cell membranes as the gamma-secretase enzyme preparation; endogenous in cells; host or cells: IMR-32 cell membranes, partially purified extract
Assay: Gamma-secretase APP enzyme assay (Example A)
Format: biochemical
Conditions: assay described in Example A
Description: The gamma-secretase APP enzyme assay was designed to measure the specific proteolytic cleavage of an APP substrate (MBP-C125 Swe fusion protein) at the Aβ40 site. […] This assay involved two steps beginning with the enzymatic reaction generating a cleavage product that was captured with an immobilized antibody specific for the neo-epitope Aβ40 site. The captured cleavage product was then detected in a sandwich ELISA assay with a biotinylated reporter antibody that is specific to Aβ(17-28). Streptavidin-linked alkaline phosphatase was then added that would generate a fluorescent signal proportional to the amount of cleavage product.
This warmed solution of BigCHAPS (N,N-Bis(3-D-gluconamidopropyl)cholamide) detergent was used to dissolve Brain Extract Type-V (lipid containing a minimum of 40% phosphatidylethanolamine) from Sigma (St. Louis, Mo.) to a concentration of 8 mg/ml. This solution containing BigCHAPS and lipid at 8 mg/ml is then diluted to 0.53 mg/ml lipid with a pre-warmed solution of Hepes and sodium chloride.
Gamma-secretase was then added to a 96-well micro-titre plate and then incubated with various concentrations of inhibitor for 30 minutes at 37° C. MBPC125 substrate was then added to initiate the reaction that would run for two hours at 37° C. The reaction was quenched with the addition of SDS to a final concentration of 0.1% and then 100 μl of the reaction mixture was transferred to a capture ELISA plate and incubated overnight at 4° C. Detection of the cleavage product was performed using a standard sandwich ELISA assay and quantified using a six point standard curve.

[1] = class symbols, read-out: γAPP IC50
[2] = numeric bounds given instead of class symbols, read-out: γAPP IC50

| IC50 [1] [nM] | Structure (SMILES) | also measured |
| --- | --- | --- |
| < 100 | O=C1c2n[nH]cc2C2c3cc(F)c(F)cc3C1N2S(=O)(=O)c1ccc(C(F)(F)F)nc1 (stereo not shown) [compound 148] |  |
| 500 to 999 | O=S(=O)(c1ccc(C(F)(F)F)nc1)N1C2Cc3[nH]ncc3C1c1cc(F)ccc12 (single isomer, unassigned) [compound 179] |  |
| > 1000 | NC1CCCCC1Nc1ccc(C2CC3Cc4n[nH]cc4C(C2)N3S(=O)(=O)c2ccc(C(F)(F)F)cc2)cc1 (stereo not shown) [compound 117] |  |
| < 100 | O=S(=O)(c1ccc(C(F)(F)F)cc1)N1C2Cc3cccc(F)c3C1c1cn[nH]c1C2 (racemic) [compound 182] |  |
| > 1000 | Cc1noc(-c2ccc3c(c2)C2c4cn[nH]c4CC3N2S(=O)(=O)c2ccc(C(F)(F)F)nc2)n1 (stereo not shown) [compound 202] |  |
| < 100 | O=S(=O)(c1ccc(C(F)(F)F)nc1)N1C2Cc3[nH]ncc3C1c1cccc(-c3ccc(F)cc3)c12 (racemic) [compound 266] |  |
| < 100 | O=S(=O)(c1ccc(C(F)(F)F)nc1)N1C2Cc3n[nH]cc3C1c1cccc(C3CC3)c1C2 (stereo not shown) [compound 134] |  |
| < 100 | O=S(=O)(c1ccc(C(F)(F)F)cn1)N1C2Cc3[nH]ncc3C1c1c(F)cccc12 (racemic) [compound 211] |  |
| < 100 | O=S(=O)(c1ccc(C(F)(F)F)nc1)N1C2Cc3[nH]ncc3C1c1cc(C3CC3)ccc12 (single isomer, unassigned) [compound 247] |  |
| < 100 | O=S(=O)(c1ccc(C(F)(F)F)nc1)N1C2Cc3[nH]ncc3C1c1cc(F)ccc12 (single isomer, unassigned) [compound 180] |  |
|  | O=S(=O)(c1ccc(C(F)(F)F)nc1)N1C2Cc3[nH]ncc3C1c1ncc(F)cc12 (racemic) [compound 258] | IC50 (γAPP IC50 (nM), class symbols): < 100 nM |
| > 1000 | COC(=O)c1ccc2c(c1)C1c3cn[nH]c3CC2N1S(=O)(=O)c1ccc(C(F)(F)F)nc1 (stereo not shown) [compound 203] |  |
| > 1000 | O=S(=O)(c1ccc(Cl)cc1)N1C2Cc3[nH]ncc3C1c1c(F)cccc12 (single isomer, unassigned) [compound 230] |  |
| < 100 | O=S(=O)(c1ccc(F)cc1)N1C2Cc3[nH]ncc3C1c1c(F)cccc12 (racemic) [compound 210] |  |
| < 100 | COC(=O)c1cccc2c1C1Cc3[nH]ncc3C2N1S(=O)(=O)c1ccc(C(F)(F)F)nc1 (racemic) [compound 220] |  |
| < 100 | O=S(=O)(c1ccc(C(F)(F)F)cc1)N1C2Cc3ccccc3C1c1cn[nH]c1C2 (racemic) [compound 164] |  |
| < 100 | O=C1CCCN1c1ccc(C2CC3Cc4n[nH]cc4C(C2)N3S(=O)(=O)c2ccc(C(F)(F)F)cc2)cc1 (stereo not shown) [compound 141] |  |
| 100 to 499 | COC(=O)c1ccc2c(c1)C1c3cn[nH]c3CC2N1S(=O)(=O)c1ccc(C(F)(F)F)nc1 (stereo not shown) [compound 205] |  |
| < 100 | O=S(=O)(c1ccc(C(F)(F)F)nc1)N1C2Cc3n[nH]cc3C1c1cc(F)c(F)cc12 (single isomer, unassigned) [compound 111] |  |

| IC50 [1] [nM] | Structure (SMILES) | also measured |
| --- | --- | --- |
| < 100 | CC12C(=O)c3[nH]ncc3C(c3ccccc31)N2S(=O)(=O)c1ccc(C(F)(F)F)cc1 (stereo not shown) [compound 277] |  |
| < 100 | O=S(=O)(c1ccc(C(F)(F)F)nc1)N1C2c3cn[nH]c3C(F)(F)C1c1cccc(F)c12 (stereo not shown) [compound 166] |  |
| 100 to 499 | O=S(=O)(c1ccc(C(F)(F)F)cc1)N1C2C=C(c3ccc(F)cc3)C1c1cn[nH]c1C2 (racemic) [compound 59] |  |
| < 100 | O=S(=O)(c1ccc(C(F)(F)F)cc1)N1C2Cc3[nH]ncc3C1C(c1ccc(F)cc1)C2 (stereo not shown) [compound 61] |  |
| < 100 | O=S(=O)(c1ccc(C(F)(F)F)nc1)N1C2Cc3[nH]ncc3C1c1cccc(CF)c12 (racemic) [compound 257] |  |
| < 100 | O=C1c2[nH]ncc2C2c3c(F)cccc3C1N2S(=O)(=O)c1ccc(Cl)cc1 (stereo not shown) [compound 236] |  |
| < 100 | O=S(=O)(c1ccc(C(F)(F)F)cc1)N1C2Cc3[nH]ncc3C1c1ccc(C(F)(F)F)cc12 (racemic) [compound 156] |  |
| < 100 | O=S(=O)(c1ccc(C(F)(F)F)cc1)N1C2c3c[nH]nc3C(F)(F)C1c1cccc(F)c12 (stereo not shown) [compound 127] |  |
| < 100 | O=S(=O)(c1ccc(C(F)(F)F)nc1)N1C2Cc3n[nH]cc3C1c1cccc(CO)c12 (stereo not shown) [compound 252] |  |
| > 1000 | O=S(=O)(c1ccc(C(F)(F)F)cc1)N1C2Cc3[nH]ncc3C1CC(c1nnn[nH]1)C2 (racemic) [compound 126] |  |
| 500 to 999 | O=C1COCCN1c1ccc(C2CC3Cc4[nH]ncc4C(C2)N3S(=O)(=O)c2ccc(C(F)(F)F)cc2)cc1 (racemic) [compound 143] |  |
| < 100 | O=S(=O)(c1ccc(Cl)cc1)N1C2Cc3[nH]ncc3C1CC(c1c[nH]nn1)C2 (racemic) [compound 93] |  |
| < 100 | O=S(=O)(c1ccc(C(F)(F)F)nc1)N1C2Cc3n[nH]cc3C1c1cc(F)c(F)cc12 (racemic) [compound 105] |  |
| < 100 | O=S(=O)(c1ccc(C(F)(F)F)cc1)N1C2Cc3[nH]ncc3C1CC(c1ccc(-c3cscn3)cc1)C2 (stereo not shown) [compound 116] |  |
| < 100 | CC(=O)Nc1ccc(C2CC3Cc4[nH]ncc4C(C2)N3S(=O)(=O)c2ccc(C(F)(F)F)cc2)cc1 (racemic) [compound 152] |  |
|  | O=S(=O)(c1ccc(C(F)(F)F)nc1)N1C2Cc3n[nH]cc3C1c1ncsc12 (stereo not shown) [compound 187] | IC50 (γAPP IC50 (nM), class symbols): 100 to 499 nM |
| < 100 | O=S(=O)(c1ccc(C(F)(F)F)cc1)N1C2c3ccccc3C1C(F)(F)c1[nH]ncc12 (racemic) [compound 74] |  |
| < 100 | O=S(=O)(c1ccc(C(F)(F)F)cc1)N1C2Cc3cccc(F)c3C1Cc1n[nH]cc12 (stereo not shown) [compound 191] |  |
|  | Cn1ncc(C2CC3Cc4[nH]ncc4C(C2)N3S(=O)(=O)c2ccc(Cl)cc2)n1 (stereo not shown) [compound 139] | IC50 [2]: > 300 nM |

| IC50 [1] [nM] | Structure (SMILES) | also measured |
| --- | --- | --- |
| < 100 | O=C1c2[nH]ncc2C2c3cccc(Cl)c3C1N2S(=O)(=O)c1ccc(C(F)(F)F)nc1 (racemic) [compound 264] |  |
| < 100 | O=S(=O)(c1ccc(C(F)(F)F)nc1)N1C2c3c[nH]nc3[C@H](F)C1c1cccc(F)c12 (stereo partly shown) [compound 207] |  |
| 100 to 499 | CC#Cc1ccc2c(c1)[C@@H]1c3cn[nH]c3C[C@@H]2N1S(=O)(=O)c1ccc(C(F)(F)F)nc1 [compound 261] |  |
| < 100 | O=S(=O)(c1ccc(Cl)cc1)N1C2Cc3[nH]ncc3C1CC(c1ccncn1)C2 (stereo not shown) [compound 107] |  |
| 500 to 999 | O=S(=O)(c1ccc(C(F)(F)F)cc1)N1C2Cc3[nH]ncc3C1c1ncccc12 (single isomer, unassigned) [compound 102] |  |
| < 100 | Cc1cc(F)cc2c1C1c3c[nH]nc3CC2N1S(=O)(=O)c1ccc(C(F)(F)F)nc1 (racemic) [compound 151] |  |
| < 100 | O=S(=O)(c1ccc(Cl)cc1)N1C2Cc3[nH]ncc3C1c1c(F)cccc12 (racemic) [compound 209] |  |
| < 100 | O=S(=O)(c1ccc(C(F)(F)F)cc1)N1C2Cc3[nH]ncc3C1c1cccc(F)c12 (racemic) [compound 97] |  |
| < 100 | O=S(=O)(c1ccc(C(F)(F)F)nc1)N1C2Cc3n[nH]cc3C1c1cccc(F)c12 (stereo not shown) [compound 183] |  |
| 100 to 499 | O=S(=O)(c1ccc(C(F)(F)F)nc1)N1C2Cc3[nH]ncc3C1c1cc(Cl)ccc12 (stereo not shown) [compound 221] |  |
|  | O=c1oc2cc3c(cc2o1)C1c2cn[nH]c2CC3N1S(=O)(=O)c1ccc(C(F)(F)F)cc1 (racemic) [compound 109] | IC50 [2]: > 100 nM |
| < 100 | N#Cc1ccc2c(c1)C1Cc3n[nH]cc3C2N1S(=O)(=O)c1ccc(C(F)(F)F)nc1 (stereo not shown) [compound 167] |  |
| 100 to 499 | O=S(=O)(c1ccc(C(F)(F)F)cc1)N1C2Cc3[nH]ncc3C1C=C2c1ccc(F)cc1 (stereo not shown) [compound 60] |  |
| < 100 | O=S(=O)(c1ccc(C(F)(F)F)nc1)N1C2/C(=N/O)c3[nH]ncc3C1c1cccc(Cl)c12 (stereo not shown) [compound 265] |  |
| 100 to 499 | O=S(=O)(c1ccc(C(F)(F)F)nc1)N1C2Cc3cccc(Br)c3C1Cc1[nH]ncc12 (stereo not shown) [compound 213] |  |
| > 1000 | O=S(=O)(c1ccc(C(F)(F)F)nc1)N1C2Cc3n[nH]cc3C1c1cc(F)c(F)cc12 (single isomer, unassigned) [compound 110] |  |
| < 100 | Cc1noc(-c2cccc3c2C2Cc4[nH]ncc4C3N2S(=O)(=O)c2ccc(C(F)(F)F)nc2)n1 (stereo not shown) [compound 234] |  |
| < 100 | O=C1CCN1c1ccc(C2CC3Cc4[nH]ncc4C(C2)N3S(=O)(=O)c2ccc(C(F)(F)F)cc2)cc1 (racemic) [compound 153] |  |

| Structure (SMILES) | IC50 [1] [nM] | also measured |
| --- | --- | --- |
| O=C1c2[nH]ncc2C2c3c(F)cccc3C1N2S(=O)(=O)c1ccc(C(F)(F)F)nc1 (stereo not shown) [compound 161] | < 100 |  |
| O=S(=O)(c1ccc(C(F)(F)F)cc1)N1C2Cc3[nH]ncc3C1Cc1ccccc12 (racemic) [compound 163] | < 100 |  |
| O=S(=O)(c1ccc(C(F)(F)F)nc1)N1C2Cc3[nH]ncc3C1c1cc(Br)ccc12 (stereo not shown) [compound 251] | 100 to 499 |  |
| O=S(=O)(c1ccc(C(F)(F)F)nc1)N1C2Cc3[nH]ncc3C1CC(c1ccc3c(c1)OCO3)C2 (stereo not shown) [compound 108] | < 100 |  |
| O=S(=O)(c1ccc(C(F)(F)F)nc1)N1C2Cc3[nH]ncc3C1c1cc(-c3ccc(F)cc3)ccc12 (stereo not shown) [compound 241] | < 100 |  |
